In brackets after ≈: the same amount, converted by molar mass.
test system: KB; experiment: Cytotoxicity against human KB cells; format: functional, cell-based

`CC(C)=CCc1cc(-c2cc3cc4c(cc3o2)OCO4)c(O)cc1O` and `CC(C)=CCOc1cc(O)c2c(c1CC=C(C)C)OC(c1ccc(O)cc1O)CC2=O` (stereo not given) [SOPHORAFLAVANONE L] are within 1.5-fold of each other in IC50: 8 µg/mL (≈ 23.6 µM) for the first, 7.1 µg/mL (≈ 16.7 µM) for the second.

Compared with `COc1cc2c(c(O)c1C(=O)/C=C/c1ccc(O)cc1O)CC(CC=C(C)C)C(C)(C)O2` (stereo not given) [CYCLOKURARIDIN], `C=C(C)C(CC=C(C)C)Cc1c(O)cc(OC)c(C(=O)C(=O)c2ccc(O)cc2O)c1O` (stereo not given) [SOPHORADIONE] is 1.9-fold higher in IC50: 15.1 µg/mL (≈ 34.4 µM) for the first, 29.4 µg/mL (≈ 66.7 µM) for the second.

For `C=C(C)C(CC=C(C)C)Cc1c(O)cc(O)c2c(=O)c(O)c(-c3ccc(O)cc3)oc12` (stereo not given), the IC50 was 24.3 µg/mL (≈ 57.5 µM).

Source: ChEMBL document CHEMBL1158045, “Phenolic constituents of the roots of Sophora flavescens” (J Nat Prod, 2006)
